Laboratory results reported in patent publication US20220073981A1 (KOREA INSTITUTE OF SCIENCE AND TECHNOLOGY, priority 2020, published 2022).

Tested on: BEAS-2B cell line
Test: Cytotoxicity test (MTT assay)
Assay type: cell-based, human
Conditions: 48 hours exposure
Description: An MTT assay was performed using the BEAS-2B cell line according to the method of Mossman et al. (J. Immunol. Methods, 65, 55-63, 1983).

## CCC(C)=O [2-butanone]
  concentration (IC5) showing the 95% survival rate: 22270 µM
  concentration showing the 80% survival rate: 106210 µM
